In the assay the target is T1, Fatty-acid amide hydrolase 1 (Rattus norvegicus, UniProt P97612).
T1 sequence (P97612 whole entry): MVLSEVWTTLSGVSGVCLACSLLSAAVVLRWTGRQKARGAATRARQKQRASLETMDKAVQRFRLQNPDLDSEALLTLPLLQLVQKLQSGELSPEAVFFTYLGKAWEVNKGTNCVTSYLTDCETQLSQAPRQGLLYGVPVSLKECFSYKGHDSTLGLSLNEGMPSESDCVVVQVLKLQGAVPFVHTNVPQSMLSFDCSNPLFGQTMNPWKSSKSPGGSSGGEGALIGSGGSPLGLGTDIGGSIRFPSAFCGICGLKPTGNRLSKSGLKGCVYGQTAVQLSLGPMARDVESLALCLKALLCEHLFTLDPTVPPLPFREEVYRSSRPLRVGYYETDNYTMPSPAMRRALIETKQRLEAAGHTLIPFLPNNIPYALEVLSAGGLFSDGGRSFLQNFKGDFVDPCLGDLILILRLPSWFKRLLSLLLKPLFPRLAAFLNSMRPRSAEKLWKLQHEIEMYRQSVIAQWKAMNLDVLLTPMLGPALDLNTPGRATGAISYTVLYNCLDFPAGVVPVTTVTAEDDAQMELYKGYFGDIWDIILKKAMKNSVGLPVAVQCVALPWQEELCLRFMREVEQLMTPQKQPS
Description: Inhibitory activity against fatty acid amide hydrolase (FAAH).

Among the data in ChEMBL document CHEMBL1134092, “alpha-Keto heterocycle inhibitors of fatty acid amide hydrolase: carbonyl group modification and alpha-substitution” (Bioorg Med Chem Lett, 2001) are Ki values, retold here.

Each structure is given as a SMILES string.

For `CCCCCCCC/C=C\CCCCCCCC(=O)c1nc2ncccc2o1`, the Ki worked out at 2.3 nM. In other words, the single-digit nanomolar range.

As for `CCCCCCCC/C=C\CCCCCCCC(=O)c1nc2ccccc2o1`, the affinity, expressed as Ki, was 150 nM. For `CCCCCCCC/C=C\CCCCCCCC(=O)c1ncco1` the value was 100 nM.
